Read-outs that look alike come from different tables or passages of the source.
Tests used:
Assay in all cases: KiNativ, MOLM13 live cells
Format in all cases: cell-based
AurB = AurB (Homo sapiens, UniProt Q96GD4); settings: MOLM-13; 100 nM, 2 hours; Lys1; read-out: Inhibition vs DMSO
Procedure: (§1) Samples were analyzed by KiNativ in situ kinase profiling by ActivX Biosciences.

CDC2 = CDC2 (Homo sapiens, UniProt P06493); settings: MOLM-13, 2 h, 100 nM
Procedure: as §1

CHK2 = CHK2 (Homo sapiens, UniProt O96017); settings: MOLM-13, 2 h, 100 nM
Procedure: as §1

CaMK2g = CaMK2g (Homo sapiens, UniProt Q13555); settings: MOLM-13; 100 nM, 2 hours; Lys1; read-out: Inhibition vs DMSO
Procedure: as §1

DNAPK = DNAPK (Homo sapiens, UniProt P78527); settings: MOLM-13, 2 h, 100 nM, ATP, read-out: Inhibition vs DMSO
Procedure: as §1

FES = FES (Homo sapiens, UniProt P07332); settings: MOLM-13; 100 nM, 2 hours; Lys1; read-out: Inhibition vs DMSO
Procedure: as §1

FGR = FGR (Homo sapiens, UniProt P09769); settings: MOLM-13; 100 nM, 2 hours; Activation Loop; read-out: Inhibition vs DMSO
Procedure: as §1

FRAP = FRAP (Homo sapiens, UniProt P42345); settings: MOLM-13; 100 nM, 2 hours; ATP; read-out: Inhibition vs DMSO
Procedure: as §1

GSK3A = GSK3A (Homo sapiens, UniProt P49840); settings: MOLM-13; 100 nM, 2 hours; Lys2; read-out: Inhibition vs DMSO
Procedure: as §1

LATS1 = biological target: T1, LATS1 (Homo sapiens, UniProt O95835); settings: MOLM-13, 2 h, 100 nM
T1 sequence (O95835 1-1130): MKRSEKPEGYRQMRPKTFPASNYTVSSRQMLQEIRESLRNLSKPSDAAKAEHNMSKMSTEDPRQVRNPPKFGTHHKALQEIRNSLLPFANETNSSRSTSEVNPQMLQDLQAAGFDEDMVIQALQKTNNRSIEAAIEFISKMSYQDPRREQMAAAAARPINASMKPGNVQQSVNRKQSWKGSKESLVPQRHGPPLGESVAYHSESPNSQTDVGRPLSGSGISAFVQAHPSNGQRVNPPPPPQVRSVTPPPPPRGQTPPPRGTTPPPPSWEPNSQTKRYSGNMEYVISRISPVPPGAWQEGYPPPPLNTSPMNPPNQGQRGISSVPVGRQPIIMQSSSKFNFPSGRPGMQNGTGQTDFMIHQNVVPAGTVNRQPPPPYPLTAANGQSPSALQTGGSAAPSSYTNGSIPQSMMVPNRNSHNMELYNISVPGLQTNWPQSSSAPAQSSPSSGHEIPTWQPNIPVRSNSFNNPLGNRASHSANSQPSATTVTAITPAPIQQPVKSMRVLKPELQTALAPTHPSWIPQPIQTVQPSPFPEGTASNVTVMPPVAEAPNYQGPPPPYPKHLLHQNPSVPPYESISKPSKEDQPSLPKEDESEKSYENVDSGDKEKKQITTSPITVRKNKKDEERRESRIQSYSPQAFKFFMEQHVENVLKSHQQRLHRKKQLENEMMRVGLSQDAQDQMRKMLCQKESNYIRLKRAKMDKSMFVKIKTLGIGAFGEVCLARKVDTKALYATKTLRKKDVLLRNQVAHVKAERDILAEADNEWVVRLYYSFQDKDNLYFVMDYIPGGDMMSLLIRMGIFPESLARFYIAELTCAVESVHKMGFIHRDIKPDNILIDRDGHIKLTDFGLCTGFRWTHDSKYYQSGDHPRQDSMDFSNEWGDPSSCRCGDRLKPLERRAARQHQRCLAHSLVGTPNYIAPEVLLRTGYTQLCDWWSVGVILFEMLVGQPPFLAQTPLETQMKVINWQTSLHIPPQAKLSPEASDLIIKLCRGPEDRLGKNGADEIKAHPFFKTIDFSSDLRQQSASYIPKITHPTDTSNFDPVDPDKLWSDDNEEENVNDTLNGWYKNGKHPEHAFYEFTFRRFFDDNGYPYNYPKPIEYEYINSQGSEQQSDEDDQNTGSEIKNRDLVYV
Procedure: as §1

MAP2K3 = biological target: T2, MAP2K3 (Homo sapiens, UniProt P46734); settings: MOLM-13, 2 h, 100 nM
T2 sequence (P46734 1-347): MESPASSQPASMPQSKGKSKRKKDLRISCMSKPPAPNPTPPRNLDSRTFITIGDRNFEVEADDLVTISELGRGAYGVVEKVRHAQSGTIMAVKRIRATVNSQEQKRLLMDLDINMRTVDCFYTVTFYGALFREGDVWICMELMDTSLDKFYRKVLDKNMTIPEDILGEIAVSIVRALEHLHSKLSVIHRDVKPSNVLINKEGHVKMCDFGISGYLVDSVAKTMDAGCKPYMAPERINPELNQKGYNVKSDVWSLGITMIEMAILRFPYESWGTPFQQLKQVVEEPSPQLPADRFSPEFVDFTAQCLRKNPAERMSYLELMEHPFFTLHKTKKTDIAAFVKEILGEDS
Procedure: as §1

MAP3K1 = MAP3K1 (Homo sapiens, UniProt Q13233); settings: MOLM-13; 100 nM, 2 hours; Lys2; read-out: Inhibition vs DMSO
Procedure: as §1

MAP3K4 = MAP3K4 (Homo sapiens, UniProt Q9Y6R4); settings: MOLM-13, 2 h, 100 nM
Procedure: as §1

NEK8 = NEK8 (Homo sapiens, UniProt Q86SG6); settings: MOLM-13; 100 nM, 2 hours; Lys2; read-out: Inhibition vs DMSO
Procedure: as §1

PLK1 = PLK1 (Homo sapiens, UniProt P53350); settings: MOLM-13, 2 h, 100 nM
Procedure: as §1

TAO2 = TAO2 (Homo sapiens, UniProt Q9UL54); settings: MOLM-13; 100 nM, 2 hours; Lys2; read-out: Inhibition vs DMSO
Procedure: as §1

ULK3 = ULK3 (Homo sapiens, UniProt Q6PHR2); settings: 100 nM, 2 hours; Lys1
Procedure: as §1

eEF2K = eEF2K (Homo sapiens, UniProt O00418); settings: MOLM-13; 100 nM, 2 hours; ATP; read-out: Inhibition vs DMSO
Procedure: as §1

[1] = Lys1, read-out: Inhibition vs DMSO
[2] = Lys2, read-out: Inhibition vs DMSO

CDC2, sequence (P06493 whole entry): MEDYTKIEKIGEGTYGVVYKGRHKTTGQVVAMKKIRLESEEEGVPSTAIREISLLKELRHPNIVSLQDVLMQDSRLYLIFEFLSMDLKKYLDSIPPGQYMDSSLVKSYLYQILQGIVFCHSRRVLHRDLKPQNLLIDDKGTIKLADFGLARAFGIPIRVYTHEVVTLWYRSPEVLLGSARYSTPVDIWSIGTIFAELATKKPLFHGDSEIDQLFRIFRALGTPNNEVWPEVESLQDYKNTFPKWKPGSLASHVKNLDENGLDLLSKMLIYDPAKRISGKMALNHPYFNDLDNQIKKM
DNAPK, sequence (P78527 2-4128 limits assumed): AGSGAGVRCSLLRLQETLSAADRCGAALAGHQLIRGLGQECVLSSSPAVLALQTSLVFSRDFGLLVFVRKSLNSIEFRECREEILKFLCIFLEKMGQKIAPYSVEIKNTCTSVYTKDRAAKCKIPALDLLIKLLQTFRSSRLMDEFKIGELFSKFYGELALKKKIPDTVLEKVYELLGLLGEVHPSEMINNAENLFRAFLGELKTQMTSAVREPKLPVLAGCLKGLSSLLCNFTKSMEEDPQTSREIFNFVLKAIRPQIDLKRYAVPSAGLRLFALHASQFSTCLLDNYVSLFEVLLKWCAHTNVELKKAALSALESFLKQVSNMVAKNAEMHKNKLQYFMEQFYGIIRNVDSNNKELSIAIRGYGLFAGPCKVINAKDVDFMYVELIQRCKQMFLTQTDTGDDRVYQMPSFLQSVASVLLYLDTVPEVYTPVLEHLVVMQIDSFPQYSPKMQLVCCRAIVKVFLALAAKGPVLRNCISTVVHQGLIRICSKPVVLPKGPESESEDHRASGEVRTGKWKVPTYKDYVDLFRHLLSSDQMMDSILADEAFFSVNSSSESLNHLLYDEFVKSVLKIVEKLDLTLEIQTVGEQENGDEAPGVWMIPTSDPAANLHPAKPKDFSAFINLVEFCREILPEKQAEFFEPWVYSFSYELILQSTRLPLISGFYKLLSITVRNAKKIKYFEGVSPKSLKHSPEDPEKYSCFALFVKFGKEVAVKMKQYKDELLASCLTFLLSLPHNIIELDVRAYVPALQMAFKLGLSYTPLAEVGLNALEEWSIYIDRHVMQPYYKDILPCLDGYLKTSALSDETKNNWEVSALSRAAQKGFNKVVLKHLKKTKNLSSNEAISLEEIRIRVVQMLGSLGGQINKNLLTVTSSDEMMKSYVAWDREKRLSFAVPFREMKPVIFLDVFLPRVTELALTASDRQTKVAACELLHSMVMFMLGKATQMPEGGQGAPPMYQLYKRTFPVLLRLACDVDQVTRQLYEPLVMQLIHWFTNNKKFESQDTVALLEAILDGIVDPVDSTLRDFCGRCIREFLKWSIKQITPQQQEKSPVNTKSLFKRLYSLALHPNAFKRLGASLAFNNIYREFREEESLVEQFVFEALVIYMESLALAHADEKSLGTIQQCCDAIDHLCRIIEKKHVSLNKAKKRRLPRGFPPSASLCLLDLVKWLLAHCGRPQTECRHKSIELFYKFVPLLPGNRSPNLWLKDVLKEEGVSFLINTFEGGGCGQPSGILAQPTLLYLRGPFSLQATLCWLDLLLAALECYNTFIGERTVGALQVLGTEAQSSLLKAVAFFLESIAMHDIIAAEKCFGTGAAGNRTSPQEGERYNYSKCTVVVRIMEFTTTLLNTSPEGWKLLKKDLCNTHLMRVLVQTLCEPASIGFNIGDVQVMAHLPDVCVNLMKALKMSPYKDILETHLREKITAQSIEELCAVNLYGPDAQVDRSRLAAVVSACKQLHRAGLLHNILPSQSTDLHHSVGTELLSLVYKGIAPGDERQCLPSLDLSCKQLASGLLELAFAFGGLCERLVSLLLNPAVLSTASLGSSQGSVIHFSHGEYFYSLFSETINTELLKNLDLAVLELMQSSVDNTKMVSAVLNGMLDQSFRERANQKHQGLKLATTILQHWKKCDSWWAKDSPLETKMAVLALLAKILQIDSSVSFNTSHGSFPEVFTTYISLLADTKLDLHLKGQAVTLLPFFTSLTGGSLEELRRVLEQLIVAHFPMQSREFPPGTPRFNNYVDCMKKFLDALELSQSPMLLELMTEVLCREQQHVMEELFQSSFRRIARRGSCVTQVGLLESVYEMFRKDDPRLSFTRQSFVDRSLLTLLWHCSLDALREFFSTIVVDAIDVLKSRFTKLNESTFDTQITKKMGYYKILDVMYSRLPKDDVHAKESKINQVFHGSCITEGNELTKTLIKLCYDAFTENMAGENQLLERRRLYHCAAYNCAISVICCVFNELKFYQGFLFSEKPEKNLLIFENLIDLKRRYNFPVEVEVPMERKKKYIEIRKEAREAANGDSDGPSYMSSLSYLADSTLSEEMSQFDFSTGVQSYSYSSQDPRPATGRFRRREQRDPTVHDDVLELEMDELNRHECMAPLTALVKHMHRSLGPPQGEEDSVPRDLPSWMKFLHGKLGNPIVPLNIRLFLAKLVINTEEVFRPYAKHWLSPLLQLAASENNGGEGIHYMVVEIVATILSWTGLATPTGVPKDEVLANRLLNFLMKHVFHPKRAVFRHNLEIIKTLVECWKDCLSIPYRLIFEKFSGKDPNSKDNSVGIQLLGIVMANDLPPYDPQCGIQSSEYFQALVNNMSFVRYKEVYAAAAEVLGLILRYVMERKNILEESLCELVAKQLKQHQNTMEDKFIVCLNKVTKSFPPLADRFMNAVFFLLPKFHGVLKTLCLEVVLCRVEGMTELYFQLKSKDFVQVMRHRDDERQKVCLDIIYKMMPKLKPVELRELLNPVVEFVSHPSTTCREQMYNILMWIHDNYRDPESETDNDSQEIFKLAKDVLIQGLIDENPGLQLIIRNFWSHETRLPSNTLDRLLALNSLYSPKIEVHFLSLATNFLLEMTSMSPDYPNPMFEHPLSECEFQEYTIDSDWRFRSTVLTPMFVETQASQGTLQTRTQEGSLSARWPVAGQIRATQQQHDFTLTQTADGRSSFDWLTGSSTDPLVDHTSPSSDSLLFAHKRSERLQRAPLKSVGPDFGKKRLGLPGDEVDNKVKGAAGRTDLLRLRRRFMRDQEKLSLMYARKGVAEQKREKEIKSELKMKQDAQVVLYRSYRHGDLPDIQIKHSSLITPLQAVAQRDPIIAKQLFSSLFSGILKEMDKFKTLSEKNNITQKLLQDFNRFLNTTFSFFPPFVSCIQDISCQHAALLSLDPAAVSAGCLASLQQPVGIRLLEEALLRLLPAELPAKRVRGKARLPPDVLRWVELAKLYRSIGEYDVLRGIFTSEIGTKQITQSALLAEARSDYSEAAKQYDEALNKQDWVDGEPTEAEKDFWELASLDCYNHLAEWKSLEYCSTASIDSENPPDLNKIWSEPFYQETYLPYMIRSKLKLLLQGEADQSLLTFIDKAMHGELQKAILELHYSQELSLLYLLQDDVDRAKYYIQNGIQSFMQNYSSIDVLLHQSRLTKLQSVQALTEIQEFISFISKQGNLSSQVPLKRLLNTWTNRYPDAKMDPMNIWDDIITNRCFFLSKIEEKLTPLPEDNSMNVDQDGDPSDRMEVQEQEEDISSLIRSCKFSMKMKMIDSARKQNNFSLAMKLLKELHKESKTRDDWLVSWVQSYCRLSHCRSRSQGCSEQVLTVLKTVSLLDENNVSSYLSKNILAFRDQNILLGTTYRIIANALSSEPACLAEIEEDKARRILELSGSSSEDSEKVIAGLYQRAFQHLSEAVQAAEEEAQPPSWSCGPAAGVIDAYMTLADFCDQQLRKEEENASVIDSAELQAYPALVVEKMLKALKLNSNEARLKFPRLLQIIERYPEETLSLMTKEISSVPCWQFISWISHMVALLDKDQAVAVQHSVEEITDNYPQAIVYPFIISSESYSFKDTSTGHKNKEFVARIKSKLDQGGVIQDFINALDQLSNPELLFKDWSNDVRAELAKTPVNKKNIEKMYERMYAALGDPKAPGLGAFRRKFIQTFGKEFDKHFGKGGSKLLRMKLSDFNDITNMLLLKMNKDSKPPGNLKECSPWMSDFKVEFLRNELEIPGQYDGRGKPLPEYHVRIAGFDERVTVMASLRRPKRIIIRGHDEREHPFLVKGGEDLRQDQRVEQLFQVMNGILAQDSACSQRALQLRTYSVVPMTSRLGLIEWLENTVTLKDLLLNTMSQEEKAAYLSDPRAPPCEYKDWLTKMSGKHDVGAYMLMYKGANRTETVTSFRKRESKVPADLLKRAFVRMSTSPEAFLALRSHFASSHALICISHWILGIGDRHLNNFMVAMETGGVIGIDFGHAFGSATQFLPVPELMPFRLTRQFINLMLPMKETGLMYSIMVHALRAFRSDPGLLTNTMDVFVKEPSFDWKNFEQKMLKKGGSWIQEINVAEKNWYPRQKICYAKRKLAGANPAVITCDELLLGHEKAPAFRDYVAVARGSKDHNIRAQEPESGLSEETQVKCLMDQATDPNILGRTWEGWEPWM
PLK1, sequence (P53350 whole entry): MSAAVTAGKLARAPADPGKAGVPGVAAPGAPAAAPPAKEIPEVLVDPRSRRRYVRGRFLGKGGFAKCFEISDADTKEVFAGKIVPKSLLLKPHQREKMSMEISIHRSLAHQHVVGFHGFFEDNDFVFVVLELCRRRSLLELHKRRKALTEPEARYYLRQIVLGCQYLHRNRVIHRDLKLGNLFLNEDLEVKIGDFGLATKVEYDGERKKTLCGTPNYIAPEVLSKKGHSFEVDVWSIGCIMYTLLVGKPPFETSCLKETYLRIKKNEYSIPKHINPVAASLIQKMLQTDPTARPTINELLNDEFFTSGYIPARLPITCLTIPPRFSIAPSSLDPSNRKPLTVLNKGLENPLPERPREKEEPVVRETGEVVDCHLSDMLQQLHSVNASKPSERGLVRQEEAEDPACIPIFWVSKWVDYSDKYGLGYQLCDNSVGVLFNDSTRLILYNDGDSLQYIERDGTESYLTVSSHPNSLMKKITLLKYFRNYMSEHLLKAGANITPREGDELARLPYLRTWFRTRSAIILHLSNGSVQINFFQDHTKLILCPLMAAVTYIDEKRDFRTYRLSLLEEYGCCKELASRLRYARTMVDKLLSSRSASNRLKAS

SMILES: CN1CCN(Cc2ccc(Nc3ncc(Cl)c(Nc4ccccc4S(=O)(=O)N(C)C)n3)cc2)CC1 [TP-0903]
- inhibition at 0.1 µM (AurB): 60.1%
- inhibition at 0.1 µM (CDC2; [1]): 2.5%
- inhibition at 0.1 µM (CDC2; [2]): 0.8%
- inhibition at 0.1 µM (CDC2; Protein Kinase Domain, read-out: Inhibition vs DMSO): -40.6%
- inhibition at 0.1 µM (CHK2; [1]): 11.3%
- inhibition at 0.1 µM (CHK2; [2]): -23.4%
- inhibition at 0.1 µM (CaMK2g): 25.8%
- inhibition at 0.1 µM (DNAPK; EHPFLVKGGEDLR): 11.7%
- inhibition at 0.1 µM (DNAPK; KGGSWIQEINVAEK): 8.3%
- inhibition at 0.1 µM (FES): 1%
- inhibition at 0.1 µM (FGR): -35.3%
- inhibition at 0.1 µM (FRAP): -9.8%
- inhibition at 0.1 µM (GSK3A): -8.9%
- inhibition at 0.1 µM (LATS1; [1]): 6.7%
- inhibition at 0.1 µM (LATS1; [2]): -12.4%
- inhibition at 0.1 µM (MAP2K3; Activation Loop, read-out: Inhibition vs DMSO): -10.9%
- inhibition at 0.1 µM (MAP2K3; [1]): 3.4%
- inhibition at 0.1 µM (MAP2K3; [2]): 8.2%
- inhibition at 0.1 µM (MAP3K1): 55.7%
- inhibition at 0.1 µM (MAP3K4; [1]): 8.8%
- inhibition at 0.1 µM (MAP3K4; [2]): 6.6%
- inhibition at 0.1 µM (NEK8): -5.3%
- inhibition at 0.1 µM (PLK1; [1]): 4.9%
- inhibition at 0.1 µM (PLK1; [2]): 0.247%
- inhibition at 0.1 µM (TAO2): 10.8%
- Inhibition vs DMSO (ULK3): 28.7%
- inhibition at 0.1 µM (eEF2K): -29.5%

From paper PMC7714403 (JCI Insight, 2020)
